# Test results from publication PMC10882974 (Environmental Science & Technology, 2024).
# “Also recorded” adds a separate entry of the source. Counter-ions that a name gives are not always drawn.
# Tests used:
# [1] = test system: marine mussels, freshwater mussels, Daphnia magna; conditions: cited from earlier work
# cyp35-a2 = cyp35-a2 gene expression (qRT-PCR); format: in vivo, Caenorhabditis elegans
# Description: 1500 worms were collected in eppendorf tubes with 300 μL of RLT lysis buffer (Qiagen, Hilden, Germany) and homogenized using a Minilys homogenizer (Bertin Technologies) at middle speed four times for 20 s and kept on ice in between. Total RNA was isolated with the QIAshredder and RNeasy mini kits (Qiagen) according to the manufacturer’s protocol. The QuantiTect reverse transcription kit (Qiagen) was used for cDNA generation. RT-qPCR was performed on a Biorad CFX Opus 384 System using an iQ SYBR Green Supermix (Biorad) for amplification. The gene of interest was cyp35-a2, and cdc-42 was used as a housekeeping gene. Primers were generated by Biolegio (Nijmegen, The Netherlands); further details on the RT-qPCR and primers can be found in SI A7. Three biological replicates were used for each treatment.
# [2] = toxicokinetics experiment III: effect of E. coli on uptake; format: in vivo, Caenorhabditis elegans; conditions: 10 mg/L, k2f elimination rate constant of fluoxetine (k2FLX,sum), exp III, 10 h
# Description: (§1) In between cycles, the samples were kept on ice. […] Samples were stored at −20 °C until further analysis.
# (§2) All parameters and units are summarized in SI A3.
# C. elegans [3] = test: as above; format: in vivo, Caenorhabditis elegans; conditions: for BCF FLX (kinetic bioconcentration factor) / kt transformation rate constant of fluoxetine to norfluoxetine: exp III, 10 h
# Description: as §1, §2
# [4] = stability of fluoxetine in S medium; conditions: 10 mg/L, 20 °C, 0.5-24 h
# Description: After 0.5, 1, 2, 5, 10, and 24 h at 20 °C, samples of spiked medium were stored at −80 °C until analysis. […] Therefore, two replicates of the samples were washed three times with M9 buffer, while the other two were just centrifuged once, and the entire supernatant was removed.
# E. coli containing pellets were resuspended in 250 μL of methanol and frozen in liquid nitrogen and then left at room temperature to thaw, followed by 5 min of sonication in a sonication bath. The freeze–thawing and sonication were repeated twice more and after this, samples were centrifuged at 15,000g for 15 min. The supernatant was stored at −20 °C until analysis.
# Separation was performed on a UHPLC system (Shimadzu) with a Kinetex 1.7 μm C18 100 A LC column (150 mm × 2.1 mm, Phenomenex).
# [5] = test system: Gammarus pulex, Nile tilapia, and Japanese Medaka; conditions: cited from earlier work
# [6] = toxicokinetics experiment II: short-term uptake of different concentrations; format: in vivo, Caenorhabditis elegans; conditions: k2f elimination rate constant of fluoxetine (k2FLX,sum), exp II, no E. coli, 2 h
# Description: as §1, §2
# C. elegans [7] = test: as above; format: in vivo, Caenorhabditis elegans; conditions: for BCF FLX (kinetic bioconcentration factor) / k1 uptake rate constant: exp II, no E. coli, 2 h
# Description: as §1, §2
# [8] = toxicokinetics experiment IV: long-term exposure of L4 and adult worms; conditions: whole organism (worm homogenate), iv, exp IV, with E. coli, 48 h
# Description: (§3) Three replicates of 1500 pooled C. elegans were used for each time point for each concentration. For experiments with E. coli, the OD600 was kept constant at 0.4.
# (§4) C. elegans containing pellets were resuspended in 500 μL of methanol, and 0.6 g of […] ceramic beads (1.4 mm) were added to the vial. The samples were homogenized three times for 20 s using a Minilys homogenizer (Bertin Technologies) at middle speed. In between cycles, the samples were kept on ice. […] The supernatant was transferred to a glass tube, the pellet (including the ceramic beads) was resuspended in 500 μL of methanol, and the homogenization, sonication, and centrifugation cycle was repeated twice more to result in a three-step extraction. The total combined supernatant was concentrated to dryness under a gentle nitrogen stream and redissolved in 500 μL of methanol to a final concentration of the IS of 1 μM. Samples were stored at −20 °C until further analysis.
# (§5) A one-compartment model was selected since chemical concentrations could only be measured for the whole organism. […] All parameters and units are summarized in SI A3.
# (§6) The kinetic bioconcentration factor[33] was calculated with eq 3, and the ke and kt were only included when applicable to the respective experiment [drawing 4] 3
# (§7) Model fitting was performed by adding the ordinary differential equations to the BYOM modeling package version 6.3 (http://www.debtox.info/byom.html) in Matlab R2022b.[34] […] Optimization was performed with the Melder–Mead Simplex Search method, minimizing the minus log-likelihood. […] Model script deviations from the BYOM model can be found in SI A9.
# C. elegans [9] = test: as above
# Description: as §3, §4, §5, §6, §7
# [10] = toxicokinetics experiment I: elimination after 1 h exposure; format: in vivo, Caenorhabditis elegans; conditions: whole organism (worm homogenate)
# Description: as §1, §2
# C. elegans [11] = test: as above; format: in vivo, Caenorhabditis elegans; conditions: after 1 h exposure; no E. coli
# Description: as §1, §2
# C. elegans [12] = test: norfluoxetine uptake and coexposure with fluoxetine (SI A5); format: in vivo, Caenorhabditis elegans; conditions: fluoxetine 5 and 20 mg/L with norfluoxetine 20 mg/L
# Description: Alternatively, there could be a concentration-dependent increase in metabolism over time resulting from enzyme induction. This was modeled with an extra metabolism rate constant ke that was included after 10 h (eq 1a and Figure 4C,D).
# [13] = with E. coli, 10 mg/L, k1, k2FLX, k2NF, kt constrained (eq 1b)
# [14] = with E. coli, 10 mg/L, no constraint
# [15] = combined experiments II, III, IV
# [16] = exp IV, with E. coli, 0.5 mg/L, 48 h
# [17] = exp IV, with E. coli, 20 mg/L, 48 h
compound,measurement,setting,value
"CNCCC(Oc1ccc(C(F)(F)F)cc1)c1ccccc1 (centres unmarked) [fluoxetine, Fluoxetine hydrochloride]",BCF values in other species,[1],"100 to 10,000"
same,increase in CYP gene expression (cyp35-a2) over time,cyp35-a2; 0.5 mg/L fluoxetine,not observed
same,CYP gene expression (cyp35-a2) over time,"cyp35-a2; 20 mg/L fluoxetine, observed for 24 h, not yet for 10 h",increase in CYP gene expression over time
same,k el,"[2]; whole organism (homogenate of pooled worms), no E. coli",0.000461 s⁻¹
same,k el,"[2]; whole organism (worm homogenate), with E. coli, k1, k2FLX, k2NF, kt constrained (eq 1b)",0.000461 s⁻¹
same,k el,"[2]; whole organism (worm homogenate), with E. coli, no constraint",0.000111 s⁻¹
same,time to reach peak internal fluoxetine concentrations,C. elegans [3]; Figure 4,2 to 5 h
same,"effect of presence of bacteria on k2FLX,sum",C. elegans [3]; Figure 5,decreased to around half
same,BCF FLX (kinetic bioconcentration factor),"C. elegans [3]; no E. coli, 10 mg/L",8.19
same,kt transformation rate constant of fluoxetine to norfluoxetine,"C. elegans [3]; no E. coli, 10 mg/L",0.05 h⁻¹
same,BCF FLX (kinetic bioconcentration factor),C. elegans [3]; [13],8.19
same,kt transformation rate constant of fluoxetine to norfluoxetine,C. elegans [3]; [13],0.05 h⁻¹
same,BCF FLX (kinetic bioconcentration factor),C. elegans [3]; [14],20.67
same,kt transformation rate constant of fluoxetine to norfluoxetine,C. elegans [3]; [14],0.065 h⁻¹
same,effect of presence of bacteria on internal concentration of fluoxetine,"C. elegans [3]; experiment III, 10 mg/L",almost doubled
same,BCF versus presence of E. coli,C. elegans [3]; in vivo,BCF: positively correlated
same,k2 versus presence of E. coli,C. elegans [3]; in vivo,k2: negatively correlated
same,concentration of fluoxetine in S medium without C. elegans over time,[4],constant over time
same,k2 elimination rate,[5],0.0008 to 0.08 h⁻¹
same,k el,"[6]; whole organism (homogenate of pooled worms), 5 mg/L, k2FLX constrained (value of experiment I)",0.000394 s⁻¹
same,k el,"[6]; whole organism (homogenate of pooled worms), 5 mg/L, no constraint",0.000333 s⁻¹
same,k el,"[6]; whole organism (homogenate of pooled worms), 20 mg/L, k2FLX constrained (value of experiment I)",0.000394 s⁻¹
same,k el,"[6]; whole organism (homogenate of pooled worms), 20 mg/L, no constraint",0.000778 s⁻¹
same,k el,"[6]; whole organism (worm homogenate), 0.5 mg/L, k2FLX constrained (value of experiment I)",0.000394 s⁻¹
same,k el,"[6]; whole organism (worm homogenate), 0.5 mg/L, no constraint",0.000981 s⁻¹
same,BCF versus exposure concentration,C. elegans [7]; [15],BCF: negatively correlated
same,k1 versus exposure concentration,C. elegans [7]; [15],k1: negatively correlated
same,BCF FLX (kinetic bioconcentration factor),"C. elegans [7]; 0.5 mg/L, k2FLX constrained",15.85
same,k1 uptake rate constant,"C. elegans [7]; 0.5 mg/L, k2FLX constrained",22.5 L/(kgnem h)
same,BCF FLX (kinetic bioconcentration factor),"C. elegans [7]; 0.5 mg/L, no constraint",13.06
same,k1 uptake rate constant,"C. elegans [7]; 0.5 mg/L, no constraint",46.1 L/(kgnem h)
same,BCF FLX (kinetic bioconcentration factor),"C. elegans [7]; 5 mg/L, k2FLX constrained",7.18
same,k1 uptake rate constant,"C. elegans [7]; 5 mg/L, k2FLX constrained",10.2 L/(kgnem h)
same,BCF FLX (kinetic bioconcentration factor),"C. elegans [7]; 5 mg/L, no constraint",7.66
same,k1 uptake rate constant,"C. elegans [7]; 5 mg/L, no constraint",9.19 L/(kgnem h)
same,BCF FLX (kinetic bioconcentration factor),"C. elegans [7]; 20 mg/L, k2FLX constrained",3.20
same,k1 uptake rate constant,"C. elegans [7]; 20 mg/L, k2FLX constrained",4.54 L/(kgnem h)
same,BCF FLX (kinetic bioconcentration factor),"C. elegans [7]; 20 mg/L, no constraint",2.71
same,k1 uptake rate constant,"C. elegans [7]; 20 mg/L, no constraint",7.58 L/(kgnem h)
same,k el,"[8]; 0.5 mg/L, k2f elimination rate constant of fluoxetine (k2FLX,sum)",0.000336 s⁻¹
same,k el,"[8]; 0.5 mg/L, ke extra metabolism rate constant after 10 h, 0.5 mg/L",1.42e-05 s⁻¹
same,k el,"[8]; 20 mg/L, k2f elimination rate constant of fluoxetine (k2FLX,sum)",0.000233 s⁻¹
same,k el,"[8]; 20 mg/L, ke extra metabolism rate constant after 10 h, 20 mg/L",0.000144 s⁻¹
same,"steady-state concentrations, L4 versus adult C. elegans (life stage)","C. elegans [9]; 0.5 and 20 mg/L, 48 h","did not show significant differences; also recorded: tested, but no effect (L4 vs adult)"
same,IR (ingestion rate) versus (toxic) effect on feeding,"C. elegans [9]; E. coli related, modeled with eq 1b",IR (ingestion rate): negatively correlated–neurotoxic effect
same,k2 versus CYP P450 induction (linked to exposure time),C. elegans [9]; adding extra ke parameter over time,k2: positively correlated (adding extra ke parameter over time)
same,BCF FLX (kinetic bioconcentration factor),C. elegans [9]; [16],24.66
same,k1 uptake rate constant,C. elegans [9]; [16],31.1 L/(kgnem h)
same,BCF FLX (kinetic bioconcentration factor),C. elegans [9]; [17],6.36
same,k1 uptake rate constant,C. elegans [9]; [17],9.01 L/(kgnem h)
same,kt transformation rate constant of fluoxetine to norfluoxetine,C. elegans [9]; [17],0.056 h⁻¹
same,k el,"[10]; 1 h exposure (fluoxetine 0.5, 5, 20 mg/L; norfluoxetine 20 mg/L), then clean medium, no E. coli, read-out: k2sum elimination rate constant (+95% CI) (converted)",0.000394 s⁻¹
same,k el,"[10]; 1 h exposure, then clean medium, slow phase after 1 h, no E. coli, read-out: k2slow elimination rate constant (+95% CI) (converted)",0.000131 s⁻¹
same,k el,"[10]; calculated from k2sum and k2slow, read-out: k2fast elimination rate constant (converted)",0.000264 s⁻¹
same,elimination over time after transfer to clean medium,C. elegans [11],almost all fluoxetine was eliminated after 6 h
same,effect of coexposure with norfluoxetine on internal fluoxetine concentrations,C. elegans [12],"no significant differences; also recorded: tested, but no effect"
